Read-outs that look alike come from different tables or passages of the source. Values belong to the compound of their own block, whether it stands above or below them.
Assays:
[1] = test system: collagen IV NCD sulfilimine cross-link formation in isolated ECM from PFHR9 cells; experiment: Inhibition of collagen IV cross-linking in decellularized extracellular matrix; type: biochemical
Procedure: (§1) PFHR9 cells (ATCC) were grown in Dulbecco’s Modified Eagle Medium (Gibco), supplemented with 10% heat-inactivated foetal bovine serum (Moregate) and 1% Penicillin Streptomycin (Gibco). As described previously, cells were seeded in 150 mm cell culture dishes and ECM was isolated. The concentration of the isolated ECM protein was measured (Direct Detect) and the yield was typically ~5 mg per dish. […] After 10 min, 100 μM bromide was added and the cross-link formation was started by adding 100 μM hydrogen peroxide. After 1 h at 37 °C, the reaction was stopped, by adding 1 mM sodium azide, and ECM was digested with 2 mg mL^−1 of collagenase type I (Worthington) for 48 h at 37 °C. The digest was spun (20 kg, RT, 20 min) and the extent of cross-linking of the NCD of collagen IV was determined by the resolution of the supernatant protein on a 12% sodium dodecyl-sulfate polyacrylamide gel electrophoresis (SDS-PAGE). […] Densitometric analyses of both dimer bands (Alliance Uvitec Cambridge imager) were used to determine the extent of inhibition of the cross-link formation. […] Once full confluence was reached, the medium was changed daily, and inhibitors were added at the indicated concentrations in 1 mL of medium for 7 days.

[2] = test system: collagen IV NCD sulfilimine cross-link formation of PFHR9 cells; experiment: Inhibition of collagen IV cross-linking in cell culture; type: cell-based; settings: PFHR9 cells grown with inhibitor for 7 days, Western blot densitometry, n.a. = 50% inhibition not reached
Procedure: as §1

Human peroxidasin (PXDN) [3] = target: T1, Human peroxidasin (PXDN) (Homo sapiens, UniProt Q92626); experiment: Amplex oxidation activity assay in the absence of bromide; type: biochemical
T1 construct: the four immunoglobulin domains and the peroxidase domain (amino acid residue 246-1314); made in house; host or cells: transient transfection
T1 sequence (Q92626 246-1314): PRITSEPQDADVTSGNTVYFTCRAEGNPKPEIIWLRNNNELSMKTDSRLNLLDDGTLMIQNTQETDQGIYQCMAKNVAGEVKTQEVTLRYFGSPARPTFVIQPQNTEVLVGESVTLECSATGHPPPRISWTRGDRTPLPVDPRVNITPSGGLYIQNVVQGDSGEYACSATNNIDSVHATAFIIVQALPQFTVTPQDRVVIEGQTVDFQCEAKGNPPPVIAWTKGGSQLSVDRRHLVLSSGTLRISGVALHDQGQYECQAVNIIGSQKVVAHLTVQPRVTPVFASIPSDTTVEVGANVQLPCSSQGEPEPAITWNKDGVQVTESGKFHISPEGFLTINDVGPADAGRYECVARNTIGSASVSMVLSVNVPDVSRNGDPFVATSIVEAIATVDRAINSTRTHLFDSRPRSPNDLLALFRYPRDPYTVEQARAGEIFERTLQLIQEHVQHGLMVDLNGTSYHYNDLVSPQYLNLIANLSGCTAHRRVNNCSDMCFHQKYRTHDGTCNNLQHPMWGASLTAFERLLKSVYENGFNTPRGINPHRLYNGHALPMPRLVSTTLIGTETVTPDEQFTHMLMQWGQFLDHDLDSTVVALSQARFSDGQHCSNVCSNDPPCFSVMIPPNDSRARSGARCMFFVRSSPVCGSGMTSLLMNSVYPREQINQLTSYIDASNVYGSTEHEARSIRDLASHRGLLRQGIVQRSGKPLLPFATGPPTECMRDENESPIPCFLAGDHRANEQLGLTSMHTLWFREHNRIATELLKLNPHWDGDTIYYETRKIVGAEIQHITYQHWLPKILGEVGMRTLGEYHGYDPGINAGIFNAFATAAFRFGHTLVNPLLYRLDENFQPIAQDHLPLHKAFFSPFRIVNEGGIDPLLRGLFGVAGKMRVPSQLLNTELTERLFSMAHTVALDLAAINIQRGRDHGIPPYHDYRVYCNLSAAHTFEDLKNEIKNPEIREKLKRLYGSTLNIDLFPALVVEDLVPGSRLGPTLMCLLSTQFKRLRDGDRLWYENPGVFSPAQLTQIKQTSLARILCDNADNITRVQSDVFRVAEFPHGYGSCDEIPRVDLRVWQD
Procedure: (§2) A previously characterized truncated peroxidasin variant, formerly annotated as hsPxd01-con4 [46], consisting of the four immunoglobulin domains and the peroxidase domain (amino acid residue 246-1314; numbering refers to full length PXDN including the signal peptide as shown in Uniprot Q92626), was used for all experiments using PXDN protein. Cloning, transient transfection, expression and the quality control of the purified recombinant PXDN was performed routinely, as described previously. Molar concentrations are per heme and were determined using an extinction coefficient of 147,500 M^−1 cm^−1 for the heme Soret peak at 412 nm. For the conversion to mg, a molar mass of 140,000 g mol^−1 was used and calculated from the molar concentration per heme. For simplicity we will refer to this variant as peroxidasin (PXDN) throughout the manuscript.
(§3) 100 µL of 50 μM Amplex™ UltraRed and 20 μM hydrogen peroxide in 50 mM phosphate buffer pH 7.4 and the respective inhibitor at twice of its final concentration was added to a 96-well plate. […] The plate was incubated in the dark for 15 min at 37 °C before the fluorescence of resorufin, the resulting Amplex oxidation product, was detected using a SpectraMax iD3 fluorescent plate reader from Molecular Devices LLC, San Jose, CA 95134 (λex 544 nm, λem 590 nm, end point measurement). The same assay was also performed with 50 mM bromide present. To determine IC50 values, Amplex oxidation (measured as the end point as described above) was plotted versus the concentration of the inhibitor and expressed as % inhibition.

Human peroxidasin (PXDN) [4] = target: T1, Human peroxidasin (PXDN); experiment: Amplex oxidation activity assay in the presence of bromide; type: biochemical
Procedure: as §2, §3

PXDN Compound I = target: T2, PXDN Compound I (Homo sapiens, UniProt Q92626); experiment: Sequential stopped-flow spectroscopy of PXDN Compound I with inhibitors; type: biochemical; settings: 1 μM PXDN Compound I, pH 7.4, 25 °C
T2 construct: the four immunoglobulin domains and the peroxidase domain (amino acid residue 246-1314); made in house; host or cells: transient transfection
T2 sequence (Q92626 246-1314): T1 sequence (Q92626 246-1314)
Procedure: Pre-steady-state spectra were recorded with the stopped-flow apparatus SX.18MV (Applied Photophysics Ltd, Leatherhead, UK) connected to a diode array detector (DAD), with the first spectrum recorded 14 ms after the mixing of the reactants. Due to the inherent instability of Compound I of PXDN, the sequential mixing mode was used to generate Compound I. Equal volumes of 4 μM PXDN and 4 μM hydrogen peroxide were mixed in the aging loop. […] Interconversion of redox intermediates of PXDN was monitored for 60 s. […] All reactions were performed in 100 mM phosphate buffer, pH 7.4, and at 25 °C. Time traces (410 nm to monitor Compound I and ferric PXDN, 432 nm for Compound II and 550 and 590 nm to monitor Compound III [46]) were extracted from the time-resolved spectra.

Human peroxidasin (PXDN) [5] = target: T1, Human peroxidasin (PXDN); experiment: Reversibility of inactivation of immobilized PXDN (wash, then Amplex assay); type: biochemical; settings: 10 min, washed four times; for Irreversible Inhibition: 20 μM inhibitor, then Amplex assay
Procedure: 200 ng of PXDN in 50 μL PBS was added per well of a Corning high-binding ELISA microplate for 2 h at room temperature. After four PBS washes, the respective inhibitors were added at a final concentration of 20 μM in phosphate buffer pH 7.4, before 10 μM of hydrogen peroxide was added in a final volume of 50 μL. In a control experiment, no hydrogen peroxide was added. After 10 min of incubation, the plates were washed four times with PBS and activity was measured as previously described, by adding 50 μL/well of 50 μM Amplex™ UltraRed Reagent, 20 μM hydrogen peroxide and 50 mM bromide in 50 mM phosphate buffer pH 7.4. The plate was incubated for 30 min in the dark at 37 °C before fluorescence was measured (λex 544 nm, λem 590 nm) and expressed as % activity of the untreated control.

LPO = test system: LPO; design: method as in PMID 8068644; settings: cited from earlier work
MPO = settings: literature statement; cited from earlier work
Human peroxidasin (PXDN) [6] = target: T1, Human peroxidasin (PXDN); experiment: Dansylglycine halogenation (bromination) activity assay; type: biochemical; settings: 50 nM PXDN, 100 mM bromide; for inhibition at 24 µM: 24 μM inhibitor, 50 μM DG, 200 μM hydrogen peroxide, pH 7.4
Procedure: as §2
Dansylglycine (DG) was made up fresh every day and kept in the dark at room temperature. […] We mixed 50 nM PXDN in 100 mM phosphate buffer pH 7.4 with 50 μM DG and 100 mM bromide, before the reaction was started by adding 200 μM of hydrogen peroxide to a final volume of 1.5 mL. Loss of fluorescence was monitored for 60 s using a F-7000 Hitachi (Methrom-Inula, Vienna) fluorometer (λex 340 nm, λem 550 nm). […] The loss of fluorescence was fitted linearly to determine the rate of reaction (min^−1). The effect of the inhibitors was expressed as % inhibition, relative to the rate of the halogenation activity of PXDN without an inhibitor. IC50 values were determined by varying inhibitor concentrations (0–48 μM).

PFHR9 cells = experiment: Tolerability / toxicity in cell culture; type: cell-based
Procedure: as §1, with “°C.” for “°C. The digest was spun (20 kg, RT, 20 min) and the extent of cross-linking of the NCD of collagen IV was determined by the resolution of the supernatant protein on a 12% sodium dodecyl-sulfate polyacrylamide gel electrophoresis (SDS-PAGE).”

TPO = test system: TPO; design: method as in PMID 8068644; settings: cited from earlier work
[7] = test system: collagen IV cross-link formation by PXDN; design: method as in PMID 22842973; settings: cited from earlier work
[8] = 100 μM bromide, 100 μM hydrogen peroxide, 1 h 37 °C, Western blot densitometry, read-out: IC50 DECM

- IC50 [1, 8]: 3.7 µM
Compound: O=C(O)CNc1ccc(Cl)cc1 [Cl-PAAA, (2-[(4-chlorophenyl)amino]-acetic acid)]
- IC50 Cells [2]: toxic

- IC50 [1, 8]: 12.7 µM
- IC50 ([2]; 168 h): ~172 µM
Compound: NNC(=O)CNc1ccc(Cl)cc1 [Cl-PAAH, (2-[(4-chlorophenyl)amino]-acetohydrazide)]

- IC50 (Human peroxidasin (PXDN) [3]): 0.01 µM
- inhibition at 20 µM (Human peroxidasin (PXDN) [4]; 20 μM inhibitor, 50 mM bromide): 25 to 70%
- Mechanism or Reaction Steady and Pre-Steady State Spectrophotometry (PXDN Compound I): Good substrate for CI and CII
Compound: NCCc1ccc(O)c(O)c1 [Dopamine]

- IC50 (Human peroxidasin (PXDN) [3]): 2.4 µM
- IC50 (Human peroxidasin (PXDN) [4]): 0.9 µM
- inhibition at 20 µM (Human peroxidasin (PXDN) [4]; 20 μM inhibitor, 50 mM bromide): 90%
- IC50 [1, 8]: 155 µM
- Mechanism or Reaction Steady and Pre-Steady State Spectrophotometry (PXDN Compound I): forms Compound III
- Irreversible Inhibition (Human peroxidasin (PXDN) [5]): no
- inhibition of PXDN remaining after washing (Human peroxidasin (PXDN) [5]; immobilized PXDN, 20 μM inhibitor without or with 10 μM hydrogen peroxide): no statistically significant difference
- IC50 Cells [2]: ineffective
Compound: NNC(=O)CNc1ccccc1F [F-PAAH, 2-[(2-fluorophenyl)amino]-acetohydrazide]

- IC50 (Human peroxidasin (PXDN) [3]): 0.137 µM
- inhibition at 20 µM (Human peroxidasin (PXDN) [3]; 20 μM inhibitor, without bromide): > 95%
- inhibition at 24 µM (Human peroxidasin (PXDN) [6]): 97 to 99%
- IC50 (Human peroxidasin (PXDN) [4]): 0.948 µM
- inhibition at 20 µM (Human peroxidasin (PXDN) [4]; 20 μM inhibitor, 50 mM bromide): > 95%
- IC50 [1, 8]: 0.95 µM
- IC50 ([1]; read-out: IC50 inhibition of collagen IV cross-link formation in ECM model): ~0.95 µM
- Mechanism or Reaction Steady and Pre-Steady State Spectrophotometry (PXDN Compound I): Adduct formation or tight ligand binding
- Irreversible Inhibition (Human peroxidasin (PXDN) [5]): yes
- inhibition at 20 µM (Human peroxidasin (PXDN) [5]; immobilized PXDN, 20 μM inhibitor without or with 10 μM hydrogen peroxide, read-out: inhibition of PXDN remaining after washing): > 95%
Compound: Oc1cc(O)cc(O)c1 [Phloroglucinol, 1,3,5-Trihydroxybenzene]
- inhibition of LPO (LPO): potently inhibits
- inhibition of MPO (MPO): not to be inhibited
- tolerability in cell culture (PFHR9 cells): well tolerated in cell culture and does not impact cell proliferation
- inhibition of TPO (TPO): potently inhibits
- IC50 ([7]; read-out: IC50 inhibition of collagen IV cross-linking, previously published value): 0.5 µM

- IC50 (Human peroxidasin (PXDN) [3]): 0.2 µM
- inhibition at 20 µM (Human peroxidasin (PXDN) [4]; 20 μM inhibitor, 50 mM bromide): 25 to 70%
- Mechanism or Reaction Steady and Pre-Steady State Spectrophotometry (PXDN Compound I): Good substrate for CI and CII
Compound: COc1ccc2c(C)nc(N=C(N)N)nc2c1 [Quinazoline, 2-(7-methoxy-4-methylquinazoline-2-yl)guanidine]

- enhancement of Amplex oxidation (Human peroxidasin (PXDN) [3]; 20 μM compound, without bromide): about 50%
- inhibition at 24 µM (Human peroxidasin (PXDN) [6]): 97 to 99%
- IC50 (Human peroxidasin (PXDN) [6]; inhibitor 0–48 μM, read-out: IC50 Halogenation Dansylglycin): 1.8 µM
Compound: CSc1ccc2c(c1)N(CCC1CCCCN1C)c1ccccc1S2 (stereo not shown) [Thioridazine]
- inhibition of Amplex oxidation in the presence of bromide (Human peroxidasin (PXDN) [4]; 20 μM inhibitor, 50 mM bromide): neither activation of Amplex oxidation, nor much inhibition
- Mechanism or Reaction Steady and Pre-Steady State Spectrophotometry (PXDN Compound I): Good substrate for CI, not a substrate for CII

Compound: Cn1cc[nH]c1=S [methimazole]
- inhibition of collagen IV cross-link formation by PXDN [7]: potently inhibits

Compound: (E)-2-methoxy-4-((2-phtalazine-1yl)hydrazono)methyl)phenol [Hydralazine-vanillin]
- Mechanism or Reaction Steady and Pre-Steady State Spectrophotometry (PXDN Compound I): good peroxidation substrates

From article PMC10812467, “Peroxidasin Inhibition by Phloroglucinol and Other Peroxidase Inhibitors” (Antioxidants, 2023)
